{"source": "patent US20200268005A1", "about": "“PELLETED RUMINANT FEED ENRICHED WITH RUMEN-AVAILABLE INGREDIENTS” (BASF SE, priority 2014, published 2020)", "assay": "CLA analysis immediately after the processing step (pelleting / extrusion)", "format": "physicochemical", "method": "Preparation of the meal: Corn and extracted soybean meal were weighed in together, ground and mixed in a horizontal mixer. Lutalin or Lutrell were added and mixed in. The mixing time amounted to 15 minutes. These two mixtures were divided in each case. 80 kg were pelleted and 30 kg were extruded.\nPelleting press: Manufacturer Simon Heesen, horizontal die, 3.3×35 mm, nominal capacity 300 kg/hr. Extruder: Werner & Pfleiderer 37, die 2×0 3.9 mm, nominal capacity up to 50 kg/hr. Pelleting: Pelleting temperatures of 67-68.5° C. were reached. Extrusion: An extrusion temperature of 85° C. was reached, approximately 14% of water having been added. A residual moisture of 10 to 12% has been found in the end product.", "data": [{"substance": "conjugated linoleic acid [CLA]", "values": [{"measurement": "activity loss on extrusion", "setting": "extrusion temperature 85° C.", "value": "approx. 40%"}, {"measurement": "survival of the pelleting process", "setting": "pelleting 67-68.5° C., in words", "value": "survived the pelleting process very well"}]}]}
